Measured values from ChEMBL document CHEMBL4616617, “Two Decades of Successful SAR-Grounded Stories of the Novel Bacterial Topoisomerase Inhibitors (NBTIs)” (J Med Chem, 2020).
Values belong to the compound of their own block, whether it stands above or below them.

Tests used:
Staphylococcus aureus [1] = test: Antibacterial activity against Staphylococcus aureus A798 assessed as reduction in microbial growth by CLSI based broth microdilution method; assay type: functional
Escherichia coli [2] = test: Antibacterial activity against Escherichia coli ATCC 25922 assessed as reduction in microbial growth by CLSI based broth microdilution method; assay type: functional
Topoisomerase IV = Topoisomerase IV (Staphylococcus aureus, UniProt P0C1S7+P0C1U9); test: Inhibition of Staphylococcus aureus RN4220 DNA topoisomerase 4 expressed in Escherichia coli BL21(DE3) cells using supercoiled pBR322 DNA as substrate by agarose gel electrophoresis method
[3] = Inhibition of Escherichia coli DNA topoisomerase 4 using supercoiled pBR322 DNA as substrate by agarose gel electrophoresis method
[4] = Inhibition of Staphylococcus aureus N-terminal His6-tagged DNA gyrase B expressed in Escherichia coli BL21(DE3) cells using relaxed pBR322 DNA as substrate incubated for 1 hr by agarose gel electrophoresis method
Staphylococcus aureus [5] = test: Antibacterial activity against Staphylococcus aureus assessed as reduction in microbial growth after 18 hrs by NCCLS based method; assay type: functional
Streptococcus pneumoniae [6] = test: Antibacterial activity against penicillin-intermediate Streptococcus pneumoniae assessed as reduction in microbial growth by CLSI based broth microdilution method; assay type: functional
Streptococcus pneumoniae [7] = test: Antibacterial activity against Streptococcus pneumoniae assessed as reduction in microbial growth by CLSI based broth microdilution method; assay type: functional
Staphylococcus aureus [8] = test: Antibacterial activity against levofloxacin-resistant Staphylococcus aureus assessed as reduction in microbial growth by CLSI based broth microdilution method; assay type: functional
Neisseria gonorrhoeae = test: Antibacterial activity against Neisseria gonorrhoeae assessed as reduction in microbial growth by agar dilution method; assay type: functional
Streptococcus pneumoniae [9] = test: Antibacterial activity against penicillin-resistant Streptococcus pneumoniae assessed as reduction in microbial growth by CLSI based broth microdilution method; assay type: functional
Escherichia coli [10] = test: Antibacterial activity against Escherichia coli assessed as reduction in microbial growth by CLSI based broth microdilution method; assay type: functional
Escherichia coli [11] = test: Antibacterial activity against levofloxacin-nonsusceptible Escherichia coli assessed as reduction in microbial growth by CLSI based broth microdilution method; assay type: functional
Escherichia coli [12] = test: Antibacterial activity against levofloxacin-susceptible Escherichia coli assessed as reduction in microbial growth by CLSI based broth microdilution method; assay type: functional
Staphylococcus aureus [13] = test: Antibacterial activity against methicillin-sensitive Staphylococcus aureus assessed as reduction in microbial growth by CLSI based broth microdilution method; assay type: functional
Staphylococcus aureus [14] = test: Antibacterial activity against Staphylococcus aureus assessed as reduction in microbial growth by CLSI based broth microdilution method; assay type: functional
Streptococcus pneumoniae [15] = test: Antibacterial activity against penicillin-susceptible Streptococcus pneumoniae assessed as reduction in microbial growth by CLSI based broth microdilution method; assay type: functional
Haemophilus influenzae = test: Antibacterial activity against Haemophilus influenzae assessed as reduction in microbial growth by CLSI based broth microdilution method; assay type: functional
Staphylococcus aureus [16] = test: Antibacterial activity against methicillin-resistant Staphylococcus aureus assessed as reduction in microbial growth by CLSI based broth microdilution method; assay type: functional
Streptococcus pneumoniae [17] = test: Antibacterial activity against levofloxacin-nonsusceptible Streptococcus pneumoniae assessed as reduction in microbial growth by CLSI based broth microdilution method; assay type: functional

MIC (Staphylococcus aureus [1]): 0.25 µg/mL | MIC (Escherichia coli [2]): 0.25 µg/mL
SMILES: CN1CC(Oc2cccc(-c3cccc(CNCC[C@@H]4CN(c5ccc6c(n5)NC(=O)CO6)C(=O)O4)c3)n2)C1

IC50 (Topoisomerase IV): 300 nM | IC50 [3]: 200 nM | IC50 [4]: 1000 nM | MIC (Staphylococcus aureus [5]): 0.12 to 1 µg/mL
SMILES: COc1ccc2ncc(F)c([C@@H](O)CC[C@@H]3CCN(CCSc4cccs4)C[C@@H]3C(=O)O)c2c1

SMILES: O=c1ccc2ncc(=O)n3c2n1C[C@H]3CN1CCC(NCc2cc3c(cn2)OCCC3)CC1 [GEPOTIDACIN]
MIC90 (Streptococcus pneumoniae [6]): 0.25 µg/mL | MIC90 (Streptococcus pneumoniae [7]): 0.25 µg/mL | MIC90 (Staphylococcus aureus [8]): 0.5 µg/mL | MIC90 (Neisseria gonorrhoeae): 0.25 µg/mL | MIC90 (Streptococcus pneumoniae [9]): 0.25 µg/mL | MIC90 (Escherichia coli [10]): 2 µg/mL | MIC90 (Escherichia coli [11]): 2 µg/mL | MIC90 (Escherichia coli [12]): 2 µg/mL | MIC90 (Staphylococcus aureus [13]): 0.5 µg/mL | MIC90 (Staphylococcus aureus [14]): 0.5 µg/mL | MIC90 (Streptococcus pneumoniae [15]): 0.25 µg/mL | MIC90 (Haemophilus influenzae): 1 µg/mL | MIC90 (Staphylococcus aureus [16]): 0.5 µg/mL | MIC90 (Streptococcus pneumoniae [17]): 0.25 µg/mL
